Measured values as given in paper PMC7472354, “Enhanced Antimicrobial Activity of N-Terminal Derivatives of a Novel Brevinin-1 Peptide from The Skin Secretion of Odorrana schmackeri” (Toxins, 2020).
Where a SMILES comes first, the peptide text is derived from it.

How the values were obtained:
horse red blood cells = conditions: 2 h
Protocol: The haemolytic activity of synthetic peptides was determined using the horse red blood cells that were extracted from the de-fibroblast whole horse blood (TCS Biosciences Ltd. Buckingham, UK). […] Briefly, the red blood cells were harvested and washed using PBS until all broken red blood cells were removed. Then, a 2% cell suspension was prepared using PBS. The peptide concentrations were set as antimicrobial activity assay and mixed with the red blood cells in the microcentrifuge tubes. After a 2 h-incubation at 37 °C, the tubes were centrifuged and the suspension was transferred into a clear 96 well plate. The absorbance of released haemoglobin in the suspension was detected at 570 nm by a plate reader. Besides, the red blood cells treated with PBS and 1% Triton X-100 were used as the negative and positive controls, respectively. […] The therapeutic index (TI) was further determined as below:(1) TI=HC50/product of n MICsn,

MRSA [1] = test: Time-killing assay; assay type: cell-based, Staphylococcus aureus; conditions: peptide at 4 × MIC; colony counts on MHA; three independent experiments
Protocol: The time-killing assays were employed to determine the killing kinetics of the peptides on the selected bacteria strains. The experiment was performed as described previously. In brief, the bacteria culture was prepared the same way as the antimicrobial activity assay. A bacteria suspension (OD600 = 0.1) was mixed with the peptides at the concentration of their corresponding MICs and 4 × MICs. At different time intervals, 10 µL of aliquots of each sample was transferred into a clean tube and a series of 10-fold dilution was prepared in PBS. A volume of 100 µL of diluted bacteria suspension was spread on an MHA plate, and the number of the bacterial colonies that were formed after an overnight-incubation at 37 °C. The bacteria cultured without any treatment was employed as the negative (growth) control. Three experiments were run in triplicate.

[2] = Circular dichroism, alpha-helical content (K2D3); assay type: physicochemical; conditions: CD, 50 µM peptide in 50% TFE in 10 mM NH4AC; helical content calculated with K2D3
Protocol: To further identify the secondary structure of purified peptides, they were dissolved in 10 mM ammonium acetate (NH4AC) and 50% trifluoroethanol (TFE) in 10 mM NH4AC, respectively, to achieve the concentration of 50 µM. […] The circular dichroism (CD) data of the peptides in TFE solution was submitted to the K2D3 webserver to analyse the α-helical content. Moreover, helical wheel projections of brevinin-1OS and its analogues were conducted (Figure A7) and the physicochemical properties of all peptides are summarized in Table 1.
Circular dichroism (CD) was employed to determine the secondary structure of the synthetic peptides in the different environment. The peptides were prepared in the aqueous solution, 10 mM NH4AC solution (pH 7.4), or the membrane mimicking solution, 50% TFE in 10 mM NH4AC, at a concentration of 50 µM. The proportion of helical content of each peptide in the 50% TFE in 10 mM NH4AC was calculated using the online server, K2D3 (http://cbdm-01.zdv.uni-mainz.de/~andrade/k2d3/). Physiochemical properties of the helical forming peptides were calculated online by Heliquest (http://heliquest.ipmc.cnrs.fr). Additionally, the secondary structures of peptides were predicted online by I-TASSER Predictions (https://zhanglab.ccmb.med.umich.edu/I-TASSER/).

MRSA [3] = test: Skin disinfection test, pig skin model; set-up: species or system Staphylococcus aureus; conditions: 10 µL peptide at 1 × MIC on MRSA-inoculated pig skin wound, 37 °C, 4 days; SEM
Protocol: Specifically, pig skin was sterilized before using. The pig skins were cut into small pieces, and then, a rectangular groove was cut using a skin graft. 100 µL of logarithmic MRSA solution was inoculated on the wound, followed by incubating at 37 °C for 30 min. […] The pictures of wounds were captured by the digital camera after washing thrice with PBS, fixed with 2.5% (w/v) glutaraldehyde and dehydrated with a graded ethanol series. Finally, the MRSA cells which had attached to the wounded pig skin were visualized by SEM (Hitachi S-4800, Tokyo, Japan).

| Structure (SMILES) | HC50 (concentration causing 50% haemolysis of the red blood cells) (horse red blood cells) [µM] | time to complete killing of MRSA (MRSA [1]) [min] | α-Helicity [2] [%] | MRSA on infected pig skin wound after treatment (MRSA [3]) |
| --- | --- | --- | --- | --- |
| CC(C)C[C@H](NC(=O)[C@H](C)NC(=O)[C@H](Cc1c[nH]c2ccccc12)NC(=O)[C@H](CCCCN)NC(=O)[C@H](CC(C)C)NC(=O)[C@@H](N)Cc1ccccc1)C(=O)N[C@@H](CCCCN)C(=O)N[C@H](C(=O)N[C@@H](C)C(=O)N[C@@H](C)C(=O)N[C@@H](CCCCN)C(N)=O)C(C)C [OSd] (H-FLKWALKVAAK-NH2) | >512 |  |  |  |
| CC(C)C[C@H](NC(=O)[C@H](C)NC(=O)[C@H](Cc1c[nH]c2ccccc12)NC(=O)[C@H](CCCCN)NC(=O)[C@@H]1CCCN1C(=O)[C@H](CC(C)C)NC(=O)[C@@H](N)Cc1ccccc1)C(=O)N[C@@H](CCCCN)C(=O)N[C@@H](Cc1c[nH]c2ccccc12)C(=O)N[C@@H](C)C(=O)N[C@@H](C)C(=O)N[C@@H](CCCCN)C(N)=O [OSf] (H-FLPKWALKWAAK-NH2; N-terminus assumed) |  | ≤ 45 | 34.8 | almost eradicated |
